Measured values: US20230133587A1, “Amino Acid Mediated Gene Delivery and Its Uses” (CHINESE INSTITUTE FOR BRAIN RESEARCH, BEIJING, priority 2020, published 2023)

Test system: astrocytes
Assay: Other amino acids promote uptake of plasmid vectors by astrocytes
Format: in vivo
Conditions: amino acid solution as vehicle
Procedure: Other amino acids, including serine, alanine, histidine, γ-aminobutyric acid, proline, lysine, and threonine, are tested. […] From the analysis of the transfection efficiency of various amino acids, it was seen that, except for alanine, the efficiency of L-type amino acids is much higher than that of D-type amino acids (please see FIG. 11).
Histidine, lysine, and arginine, which are also positively charged, are significant differences in delivery efficiency, and gene delivery efficiency of threonine, serine lysine, etc. also has vast differences.

SMILES | uptake of plasmid vectors by astrocytes
C[C@H](N)C(=O)O [alanine] | can efficiently promote astrocytes to take up plasmid vectors
N[C@@H](CO)C(=O)O [serine] | can efficiently promote astrocytes to take up plasmid vectors
N[C@@H](CO)C(=O)O [L-Serine] | promote astrocyte uptake of plasmid vector(s)
C[C@@H](O)[C@H](N)C(=O)O [L-Threonine] | promote astrocyte uptake of plasmid vector(s)
N[C@@H](Cc1c[nH]cn1)C(=O)O [L-Histidine] | promote astrocyte uptake of plasmid vector(s)
C[C@@H](N)C(=O)O [D-Alanine] | promote astrocyte uptake of plasmid vector(s)
O=C(O)[C@@H]1CCCN1 [proline] | can efficiently promote astrocytes to take up plasmid vectors
C[C@@H](O)[C@H](N)C(=O)O [threonine] | can efficiently promote astrocytes to take up plasmid vectors
NCCCC(=O)O [γ-aminobutyric acid] | can efficiently promote astrocytes to take up plasmid vectors
NCCCC[C@H](N)C(=O)O [lysine] | can efficiently promote astrocytes to take up plasmid vectors
N[C@@H](Cc1c[nH]cn1)C(=O)O [histidine] | can efficiently promote astrocytes to take up plasmid vectors
